The nature of assay [1]: HEp-2 cell cytotoxicity, dose response, cytotoxicity control for RSV inhibitor project, HTS (AID 2410). The assay is classed as functional. The note with it: human respiratory syncytial virus.
For assay [2], the target named is Cytochrome P450 2C9 (Homo sapiens, UniProt P11712).
Assay [3] has as its system Streptococcus sp. 'group A'. In words: growth inhibition of control SK(-) GAS strain, dose response, counter-screen for streptokinase expression inhibitor project, luminescence, kanamycin, BacTiterGlo, confirmation (AID 1900). The class given is functional, organism-based.
The target of assay [4] is T1, Streptokinase A (Streptococcus pyogenes serotype M1, UniProt P10520).
T1 sequence (P10520 whole entry): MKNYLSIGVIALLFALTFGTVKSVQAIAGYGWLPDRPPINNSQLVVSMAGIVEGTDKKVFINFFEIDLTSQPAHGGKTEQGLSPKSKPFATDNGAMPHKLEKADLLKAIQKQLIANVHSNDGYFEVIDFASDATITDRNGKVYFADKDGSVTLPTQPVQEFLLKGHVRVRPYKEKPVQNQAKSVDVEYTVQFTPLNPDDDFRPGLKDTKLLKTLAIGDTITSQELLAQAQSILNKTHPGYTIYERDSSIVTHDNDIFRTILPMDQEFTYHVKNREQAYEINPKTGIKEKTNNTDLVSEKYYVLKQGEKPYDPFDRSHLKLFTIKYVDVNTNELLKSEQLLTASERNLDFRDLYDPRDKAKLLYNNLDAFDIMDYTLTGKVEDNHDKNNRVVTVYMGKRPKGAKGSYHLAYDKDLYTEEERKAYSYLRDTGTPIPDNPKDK
The assay is described as follows: S. pyogenes streptokinase expression inhibitors, potency, dose response, plasminogen activation absorbance, OD405 (AID 1914).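 Note: secreted streptokinase activity via plasminogen activation per viability signal from cell pellet.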 The class given is functional, Streptococcus pyogenes M1 GAS.

The subject of assay [5] is Streptococcus. The assay is described as follows: Group A Streptococcus viability loss, dose response, counter-screen for streptokinase expression inhibitor project, luminescence, BacTiterGlo (AID 1915).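 Note: potency for reduction of bacterial viability or growth.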 The class given is functional, organism-based.
The target of assay [6] is T2, Corticotropin-releasing factor receptor 2/Corticotropin-releasing factor-binding protein (Homo sapiens, UniProt P24387+Q13324).
T2 sequence (Q13324 whole entry): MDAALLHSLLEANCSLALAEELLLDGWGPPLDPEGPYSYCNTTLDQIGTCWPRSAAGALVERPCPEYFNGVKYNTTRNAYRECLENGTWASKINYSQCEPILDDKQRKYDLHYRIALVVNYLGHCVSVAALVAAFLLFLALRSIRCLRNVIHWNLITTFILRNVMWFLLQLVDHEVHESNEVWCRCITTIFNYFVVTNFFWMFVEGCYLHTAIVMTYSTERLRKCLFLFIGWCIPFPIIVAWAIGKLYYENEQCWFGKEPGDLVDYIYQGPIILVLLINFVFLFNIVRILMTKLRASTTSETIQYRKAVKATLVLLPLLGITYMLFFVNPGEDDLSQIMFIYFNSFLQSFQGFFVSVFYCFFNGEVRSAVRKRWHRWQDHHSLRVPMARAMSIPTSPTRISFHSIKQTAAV
T2 sequence (P24387 whole entry): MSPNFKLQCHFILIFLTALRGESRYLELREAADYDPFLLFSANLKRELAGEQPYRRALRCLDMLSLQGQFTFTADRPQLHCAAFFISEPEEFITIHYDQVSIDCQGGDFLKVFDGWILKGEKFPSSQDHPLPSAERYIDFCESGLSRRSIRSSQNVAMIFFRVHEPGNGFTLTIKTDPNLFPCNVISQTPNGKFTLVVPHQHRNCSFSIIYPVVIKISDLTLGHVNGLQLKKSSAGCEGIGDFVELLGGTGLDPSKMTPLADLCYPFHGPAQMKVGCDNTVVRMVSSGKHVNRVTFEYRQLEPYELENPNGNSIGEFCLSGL
The assay is described as follows: activators of CRF receptor 2 with binding protein – uHTS hits, confirmation (AID 602473). The class given is functional. The note with it: read-out: EC50_Mean.

The target in assay [7] is Cytochrome P450 3A4 (Homo sapiens, UniProt P08684).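 Note: CYP3A4 tested as one member of a cytochrome P450 panel screen.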
Sequence of Cytochrome P450 3A4 (P08684 whole entry): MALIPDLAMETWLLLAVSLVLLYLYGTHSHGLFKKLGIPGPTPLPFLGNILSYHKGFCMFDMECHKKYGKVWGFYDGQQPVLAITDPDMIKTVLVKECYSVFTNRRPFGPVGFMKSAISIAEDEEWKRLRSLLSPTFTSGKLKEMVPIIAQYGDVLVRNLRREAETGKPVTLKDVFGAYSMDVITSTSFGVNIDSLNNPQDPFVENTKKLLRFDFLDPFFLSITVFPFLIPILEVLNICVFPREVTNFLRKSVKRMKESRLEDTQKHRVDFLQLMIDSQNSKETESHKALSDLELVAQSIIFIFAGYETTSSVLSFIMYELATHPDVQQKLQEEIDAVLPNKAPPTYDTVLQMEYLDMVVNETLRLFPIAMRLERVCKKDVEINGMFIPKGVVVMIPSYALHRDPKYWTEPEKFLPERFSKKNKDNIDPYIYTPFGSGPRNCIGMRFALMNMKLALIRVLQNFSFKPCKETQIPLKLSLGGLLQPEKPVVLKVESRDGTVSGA
Assay [8] concerns the target T3, Cytochrome P450 1A2 (Homo sapiens, UniProt P05177).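 Note: PubChem cytochrome P450 panel assay, CYP1A2 panel member.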
T3 sequence (P05177 whole entry): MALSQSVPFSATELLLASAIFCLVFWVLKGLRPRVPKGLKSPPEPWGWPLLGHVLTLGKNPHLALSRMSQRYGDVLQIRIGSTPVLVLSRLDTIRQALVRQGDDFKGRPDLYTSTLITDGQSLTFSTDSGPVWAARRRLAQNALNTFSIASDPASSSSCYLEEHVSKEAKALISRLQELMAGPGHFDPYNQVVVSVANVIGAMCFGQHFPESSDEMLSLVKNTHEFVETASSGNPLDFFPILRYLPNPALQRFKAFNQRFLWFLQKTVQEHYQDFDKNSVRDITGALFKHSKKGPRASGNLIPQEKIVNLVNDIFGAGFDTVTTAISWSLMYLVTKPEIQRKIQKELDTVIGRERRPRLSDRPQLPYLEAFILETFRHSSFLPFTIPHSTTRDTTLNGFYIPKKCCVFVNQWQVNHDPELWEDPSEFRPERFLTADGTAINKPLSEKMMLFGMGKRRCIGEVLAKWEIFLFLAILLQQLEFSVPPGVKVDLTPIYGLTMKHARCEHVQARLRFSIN

The target in assay [9] is Cytochrome P450 2C19 (Homo sapiens, UniProt P33261). In words: Cytochrome panel assay with activity outcomes. Panel member name: p450-cyp2c19 Compounds with AC50 equal or less than 10 uM are considered active. The note with it: read-out: AC50. The assay is classed as functional.
Sequence of Cytochrome P450 2C19 (P33261 whole entry): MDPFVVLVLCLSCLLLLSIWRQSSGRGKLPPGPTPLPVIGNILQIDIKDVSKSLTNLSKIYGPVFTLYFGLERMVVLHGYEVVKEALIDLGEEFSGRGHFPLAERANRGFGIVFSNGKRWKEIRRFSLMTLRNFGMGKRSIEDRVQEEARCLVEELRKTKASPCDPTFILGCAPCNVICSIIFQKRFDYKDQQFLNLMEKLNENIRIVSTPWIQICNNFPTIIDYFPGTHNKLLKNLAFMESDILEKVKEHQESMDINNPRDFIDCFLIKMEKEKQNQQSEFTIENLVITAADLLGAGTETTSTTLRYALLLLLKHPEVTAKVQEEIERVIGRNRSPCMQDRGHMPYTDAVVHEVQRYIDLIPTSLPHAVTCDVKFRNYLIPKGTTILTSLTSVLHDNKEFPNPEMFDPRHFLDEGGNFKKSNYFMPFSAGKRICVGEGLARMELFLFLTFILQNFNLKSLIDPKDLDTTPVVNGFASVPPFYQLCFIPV

Calls of active or inactive are those of the source.

Sequence of Cytochrome P450 2C9 (P11712 whole entry): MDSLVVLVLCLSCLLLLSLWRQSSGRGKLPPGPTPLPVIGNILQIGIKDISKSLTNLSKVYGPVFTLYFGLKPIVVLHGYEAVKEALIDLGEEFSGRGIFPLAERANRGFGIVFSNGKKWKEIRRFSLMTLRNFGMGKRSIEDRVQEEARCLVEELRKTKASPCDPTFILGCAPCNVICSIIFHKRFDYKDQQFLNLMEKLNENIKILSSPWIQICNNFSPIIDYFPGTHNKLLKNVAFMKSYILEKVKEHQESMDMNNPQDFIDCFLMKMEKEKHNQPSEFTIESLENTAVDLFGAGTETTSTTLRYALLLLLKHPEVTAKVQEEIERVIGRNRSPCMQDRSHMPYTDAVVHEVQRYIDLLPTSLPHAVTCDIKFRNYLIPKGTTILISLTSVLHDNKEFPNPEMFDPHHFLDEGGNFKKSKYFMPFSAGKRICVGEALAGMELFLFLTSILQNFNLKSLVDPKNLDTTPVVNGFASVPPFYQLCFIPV

For orientation: CC50 means the concentration giving 50% cytotoxicity. On to `CC1CN(S(=O)(=O)c2cccc(C(=O)Nc3cc(Cl)ccc3N3CCOCC3)c2)CC(C)O1` (stereo unspecified), for which, in [1], the CC50 is 43 µM (active).

The term AC50 denotes the concentration giving half of the maximal activity seen. In the case of `CN(C)c1ccc(-c2cncnc2NCCc2cnc[nH]2)cc1`, the AC50 in assay [2] is 0.501 µM (inconclusive).

`Cc1ccc(NC2c3ncccc3C(=O)N2Cc2ccc(F)cc2)cc1` (stereo unspecified): in assay [1], the CC50 was > 50 µM (active).

Turning to `OC(COc1ccc(Cl)c2ccccc12)CN1CCN(c2ccccn2)CC1` (stereo unspecified), the CC50 in [1] was 18.3 µM (active).

Consider `O=C(NNc1nc(-c2ccc(F)cc2)cs1)c1ccccc1`, for which the values for the EC50 in [3], in assay [4] and in assay [5] were 0.831 µM (active), > 150 µM (not active) and > 150 µM (not active), respectively.

For the compound `CCNc1nc(NCC)nc(-n2nc(C)cc2C)n1`, the EC50 was 17.2 µM (active) in [3], > 150 µM (not active) in assay [4] and > 150 µM (not active) in [5].

For the compound `Cn1cccc1CC(=O)NNC(=S)NC(=O)c1ccccc1Br`, the EC50 in assay [3] was 5.95 µM (active); in assay [4] it was > 150 µM (not active); in assay [5], 137 µM (active).

As to `Cc1cc(Br)cc2c1N(C)C(=O)C2(c1ccc(O)cc1)c1ccc(O)cc1`, the CC50 in assay [1] was 13.8 µM (active).

Regarding `Cc1ccc(Cn2c(C(C)Nc3nc(-c4ccc(F)cc4)cs3)nc3cc(Cl)c(Cl)cc32)cc1` (stereo unspecified), in [1], the CC50 is 49.3 µM (active).

For `CCCCC(=O)NC(=S)NNC(=O)CCc1ccccc1`, the EC50 was 3.35 µM (active) in assay [3], 8.5 µM (active) in assay [5] and 4.32 µM (active) in assay [6].

For the compound `CC(C)NC(=O)N1CC2(CCN(C(=O)c3ccncc3)CC2)C1`, the AC50 in [7] is 0.0794 µM (inconclusive).

As for `O=c1c2ccccc2c(-c2ccccc2)nn1Cc1ccc(Cl)cc1`, the AC50 in [8] was 0.0708 µM (inconclusive).

As to `CC(=O)Nc1ccc(OCC(=O)N2CCC(Cc3ccccc3)CC2)cc1`, the CC50 in assay [1] is 21.6 µM (active).

As for `O=C(Nc1ccc(F)cc1F)c1cccnc1Oc1cccc(C(F)(F)F)c1`, in [8], the AC50 was 0.794 µM (inconclusive).

Take `Clc1ccc(-c2n[nH]c3c2CCC3)c(Cl)c1`: the EC50 in assay [4] is > 150 µM (not active).

`C[C@]12C=CC(=O)C=C1CC[C@@H]1[C@H]3C[C@@H](O)[C@](O)(C(=O)CO)[C@@]3(C)C[C@H](O)[C@]12F`: in assay [2], the AC50 was 15.8 µM (inconclusive).

`CCC/C=C(\CCC)C(NS(=O)(=O)c1ccc(C(F)(F)F)cc1)c1ccc(C(=O)OC)cc1` (stereo unspecified): the concentration at half-maximal activity (AC50) in assay [7] is 1 µM (inconclusive).

For the compound `CCCc1cc2c(n1Cc1cccc(Cl)c1)C(C)C1CN(C(=O)c3ccccc3)C(C)(C(=O)OC)C21` (stereo unspecified), the AC50 in assay [8] is 31.6 µM (inconclusive).

For `CCOC(=O)c1nn(-c2ccccc2Cl)c(=O)cc1OCC(=O)Nc1cccc(OC)c1`, the results for the EC50 in [3], in assay [4] and in assay [5] were 31.2 µM (active), > 150 µM (not active) and > 150 µM (not active), respectively.

With `COC(=O)[C@@]1(Cc2ccc(OC)cc2)[C@H]2c3cc(C(=O)N4CCCC4)n(CCn4cc([N+](=O)[O-])nc4C)c3C[C@H]2CN1C(=O)c1ccccc1`, in assay [2], the AC50 is 31.6 µM (inconclusive).

With `COc1ccccc1NC(=O)Nc1ccc(Cc2ccncc2)cc1`, the CC50 in [1] is 19.1 µM (active).

Take `COc1ccc2nc(NC(C)=O)sc2c1`: the AC50 is 39.8 µM (inconclusive) in assay [9] and 28.2 µM (inconclusive) in assay [7].

Turning to `Cc1cc(NC(=O)c2cc(C(C)C)on2)no1`, in [8], the AC50 is 20 µM (inconclusive).

Consider `CC[C@@H](c1ccccc1)n1c(=O)n2n(c1=O)[C@H]1[C@H](O)[C@H]3O[C@@H]3/C(=N/OCc3ccccc3)[C@@H]1CC2`, for which the AC50 in assay [7] was 5.01 µM (inconclusive).

Turning to `CCOc1ccc(NS(=O)(=O)c2ccc(C(=O)N3CC(C)OC(C)C3)cc2)cc1` (stereo unspecified), the EC50 in assay [6] was 7.94 µM (active).

Take `CC(=O)c1cccc(NC(=O)c2csc(-n3nc(C)cc3C(F)(F)F)n2)c1`: the AC50 in assay [9] is 7.94 µM (inconclusive); in assay [2], 1 µM (inconclusive).

Consider `CCOc1cc(CNc2ccc3c(c2)CCC3)ccc1OC`, for which the EC50 in [3], in assay [4] and in assay [5] was > 150 µM (not active) throughout.

Consider `CCCCNC1=N/C(=C\c2ccco2)C(=O)N1c1ccccc1`, for which the figures for the half-maximal activity concentration (AC50) in assay [9] and in assay [2] were 39.8 µM (inconclusive) and 4.47 µM (inconclusive), respectively.

In the case of `COc1ccc(-c2nc3cnc(Nc4cccc(OC)c4)nc3n(C[C@H]3CCCO3)c2=O)cc1`, the half-maximal activity concentration (AC50) in assay [7] was 5.01 µM (inconclusive).

In the case of `O=S(=O)(c1ccccc1)N1CCC2(CCN(c3ccccc3)CC2)CC1`, the concentration at half-maximal activity (AC50) in [9] is 10 µM (inconclusive); in assay [7], 2.51 µM (inconclusive); in [2], 39.8 µM (inconclusive).

Consider `CCC(=O)Nc1c2c(nc3c1CCC3)CCCC2`, for which the AC50 in [8] was 15.8 µM (inconclusive).

`COC(=O)c1cc(C(=O)Nc2nc3ccccc3[nH]2)cc([N+](=O)[O-])c1`: the values for the EC50 in [3], in [4] and in assay [5] were 3.94 µM (active), > 150 µM (not active) and > 150 µM (not active), respectively.

As for `CC(NC(=O)Nc1ccc(Cl)cc1)c1ccc2c(c1)OCO2` (stereo unspecified), in assay [1], the CC50 was 39.5 µM (active).

Turning to `CC(C)(C)c1nc(SCC(=O)Nc2ccc(N3CCOCC3)cc2)c2ccccc2n1`, the AC50 in assay [7] is 1 µM (inconclusive).

Regarding `CCn1c2ccccc2c2cc(NC(=O)C(C)Oc3ccc(OC)cc3)ccc21` (stereo unspecified), the CC50 in assay [1] is > 50 µM (active). The AC50 in [2] is 7.94 µM (inconclusive).

On to `COc1ccc(C(=O)N2CCC[C@@]3(CCN(c4ccccc4)C3)C2)cc1`, for which the AC50 in [7] was 7.94 µM (inconclusive).

Consider `O=S(=O)(c1ccccc1)N1CCC2(CCN(c3ccc(-c4ccccc4)cc3)CC2)CC1`, for which the half-maximal activity concentration (AC50) in assay [7] was 20 µM (inconclusive).

For `Cc1ccc2[nH]c(/C(C#N)=C\c3cc(C)n(-c4cccc([N+](=O)[O-])c4)c3C)nc2c1`, the CC50 in assay [1] was 16.6 µM (active).

Take `O=c1c(CCc2ccccc2)nc2cnc(Oc3ccccc3)nc2n1C1CC1`: in [7], the AC50 is 15.8 µM (inconclusive).

Take `CC(C)NC(=O)N(C)C[C@H]1OCc2cnnn2CCCC(=O)N([C@H](C)CO)C[C@H]1C`: the EC50 in assay [6] is > 53 µM (inactive).

As for `CCCc1nc2ccccc2c(=O)n1NC(=O)c1c(O)c2cccc3c2n(c1=O)CCC3`, the EC50 is 3.78 µM (active) in [3], > 150 µM (not active) in [4] and 7.68 µM (active) in [5].

`CC(/C=C/c1ccccc1)=N\NC(=O)C1CC1(C)c1ccccc1` (stereo unspecified): the CC50 in assay [1] is 32 µM (active).

Regarding `Cc1cccc(CNc2ncnc3ccc(-c4c(C)noc4C)cc23)c1`, the AC50 in assay [2] is 1 µM (inconclusive).

Consider `CC[C@@H](CO)Nc1nc(NCc2ccccc2)c2ncn(C(C)C)c2n1` [(S)-ROSCOVITINE], for which, in assay [2], the AC50 is 0.316 µM (inconclusive).

For the origin of these results see ChEMBL document CHEMBL1201862, “PubChem BioAssay data set” (2004).
